Like-named read-outs stand apart in the source and are kept apart here.
Columns and labels:
Type in all cases: cell-based
SARS-CoV-2 = assay: microbe, parasite or virus in culture; details: read-out: half effective concentration EC50 on activity of SARS-CoV-2
cell Vero-E6 = assay: Cytotoxicity detection (CCK-8), cell Vero-E6; details: for toxic effect on the cell Vero-E6: 48 hours, CCK-8; for cytotoxicity: within the effective concentration range, cell not named
Experimental: (§1) • 1. Method: • 1) Cell inoculation: Cells Vero-E6 and 293T/ACE2 in a logarithmic growth period were taken, cell densities thereof were adjusted to 1^∗10^4 cells/well, and 100 µL/well thereof were respectively inoculated on a 96-well plate and cultured overnight. • 2) Drug concentration design: Before administration, a drug was diluted to nine concentration gradients with a DMEM medium containing fetal bovine serum of 2% of a total volume twice multiple proportions, and an initial concentration of the drug was set to 200 µM (200, 100, 50, 25, 12.5, 6.25, 3.125, 1.5625, 0.78125 µM), and 100 µL per well of a diluted drug was taken to be added into the cells Vero-E6 and 293T/ACE2 in the 96-well plate in 1), with a final volume of 200 µL per well. Triplicate wells were set for each drug concentration. A DMSO solvent treatment group was used as a blank control. • 3) Absorbance detection: After incubation in an incubator for 48 hours, 10 µL of a CCK-8 working solution was added into each well, and incubation continued to be conducted in the incubator for 3 hours. The absorbance at 450 nm was measured by a microplate reader. • 4) According to measured OD values, survival rates of the cells Vero-E6 and 293T/ACE2 under the action of various concentrations of the drug were calculated respectively compared with the control group. • 2.
(§2) • 1. Method: • 1) Cell inoculation: Cells Vero-E6 and 293T/ACE2 in a logarithmic growth period were taken, cell densities thereof were adjusted to 1^∗10^4 cells/well, and 100 µL/well thereof were respectively inoculated on a 96-well plate and cultured overnight in a 37°C cell incubator. • 2) Drug concentration design: Before administration, a drug was diluted to eight concentration gradients with a DMEM medium containing fetal bovine serum of 2% of a total volume twice multiple proportions. Cell Vero-E6: an initial concentration was set to 200 µM (200, 100, 50, 25, 12.5, 6.25, 3.125, 1.5625 µM), and 100 µL per well of a diluted drug was taken to be added into the cell Vero-E6 in the 96-well plate in 1), with a final volume of 200 µL per well. Triplicate wells were set for each drug concentration. A DMSO solvent treatment group was used as a blank control. Cell 293T/ACE2: an initial concentration was set to 100 µM (100, 50, 25, 12.5, 6.25, 3.125, 1.5625, 0.78125 µM), and 100 µL per well of a diluted drug was taken to be added into the cell 293T/ACE2 in the 96-well plate in 1), with a final volume of 200 µL per well. Triplicate wells were set for each drug concentration. A DMSO solvent treatment group was used as a blank control. • 3) Absorbance detection: After incubation in an incubator for 48 hours, 10 µL of a CCK-8 working solution was added into each well, and incubation continued to be conducted in the incubator for 3 hours. The absorbance at 450 nm was measured by a microplate reader. • 4) According to measured OD values, survival rates of the cells Vero-E6 and 293T/ACE2 under the action of various concentrations of the drug were calculated respectively compared with the control group.
• 1. Method: • 1) Cell inoculation: Cells Vero-E6 and 293T/ACE2 in a logarithmic growth period were taken, cell densities thereof were adjusted to 1^∗10^4 cells/well, and 100 µL/well thereof were respectively inoculated on a 96-well plate and cultured overnight. • 2) Drug concentration design: Before administration, a drug was diluted to nine concentration gradients with a DMEM medium containing fetal bovine serum of 2% of a total volume twice multiple proportions, and an initial concentration was set to 200 µM (200, 100, 50, 25, 12.5, 6.25, 3.125, 1.5625, 0.78125 µM), and 100 µL per well of a diluted drug was taken to be added into the cells Vero-E6 and 293T/ACE2 in the 96-well plate in 1), with a final volume of 200 µL per well. Triplicate wells were set for each drug concentration. […]

SARS-CoV-2 pseudovirus = assay: microbe, parasite or virus in culture; details: Severe acute respiratory syndrome-related coronavirus, 293T/ACE2, 48 h, read-out: half inhibitory concentration IC50 to inhibit entering of the SARS-CoV-2 pseudovirus into a target cell
cell 293T/ACE2 = assay: Cytotoxicity detection (CCK-8), cell 293T/ACE2; details: 48 hours
Experimental: as §1
as §2, with “Cell 293T/ACE2: an initial concentration was set to 100 µM (100, 50, 25, 12.5, 6.25, 3.125, 1.5625, 0.78125 µM), and 100 µL per well of a diluted drug was taken to be added into the cell 293T/ACE2 in the 96-well plate in 1), with a final volume of 200 µL per well. Triplicate wells were set for each drug concentration.” left out, “group. […]” for “group.”

[1] = at 100 µM and within an effective concentration range
[2] = Severe acute respiratory syndrome coronavirus 2, Vero C1008, 24 h
[3] = at 200 µM and within an effective concentration range

| Structure (SMILES) | EC50 (SARS-CoV-2) [nM] | toxic effect on the cell Vero-E6 (cell Vero-E6; [1]) | cytotoxicity (cell Vero-E6) | EC50 (SARS-CoV-2; [2]) [nM] | IC50 (SARS-CoV-2 pseudovirus) [nM] | toxic effect on the cell Vero-E6 (cell Vero-E6; at 10 µM and within an effective concentration range) | toxic effect on the cell 293T/ACE2 (cell 293T/ACE2; at 2.5 µM and within an effective concentration range) | toxic effect on the cell Vero-E6 (cell Vero-E6; [3]) | toxic effect on the cell 293T/ACE2 (cell 293T/ACE2; [3]) | toxic effect on the cell 293T/ACE2 (cell 293T/ACE2; [1]) |
| --- | --- | --- | --- | --- | --- | --- | --- | --- | --- | --- |
| Cc1coc2c1C(=O)C(=O)c1c-2ccc2c(C)cccc12 [Tanshinone I] | 2980 | no obvious toxic effect | no obvious cytotoxicity | – | – | – | – | – | – | – |
| C[C@H]1COC2=C1C(=O)C(=O)c1c2ccc2c1CCCC2(C)C [cryptotanshinone, Cryptotanshinone] | – | no obvious toxic effect | no obvious cytotoxicity | 1460 | – | – | – | – | – | – |
| Cc1cccc2c3c(ccc12)C1=C(C(=O)C3=O)[C@@H](C)CO1 [dihydrotanshinone I] | – | – | no obvious cytotoxicity | 640 | 680 | no obvious toxic effect | no obvious toxic effect | – | – | – |
| O=C(O)[C@H](O)Cc1ccc(O)c(O)c1 [salvianic acid A] | – | – | no obvious cytotoxicity | 1070 | 2700 | – | – | no obvious toxic effect | no obvious toxic effect | – |
| O=C(/C=C/c1ccc(O)c2c1[C@H](C(=O)O[C@H](Cc1ccc(O)c(O)c1)C(=O)O)[C@@H](c1ccc(O)c(O)c1)O2)O[C@H](Cc1ccc(O)c(O)c1)C(=O)O [salvianolic acid B] | – | – | no obvious cytotoxicity | 55500 | 416 | – | – | no obvious toxic effect | – | no obvious toxic effect |
| O=C(/C=C/c1ccc(O)c2oc(-c3ccc(O)c(O)c3)cc12)O[C@H](Cc1ccc(O)c(O)c1)C(=O)O [salvianolic acid C] | – | – | no obvious cytotoxicity | 3410 | 5900 | – | – | no obvious toxic effect | no obvious toxic effect | – |
